These results are taken from patent publication US9920010B2, “CXCR7 receptor modulators” (IDORSIA PHARMACEUTICALS LTD, priority 2013, dated 2018).

Molecules are shown by their SMILES.

The target in the experiment is T1, CXCR7 (Homo sapiens, UniProt P25106).
T1 construct: host or cells: CHO-K1 (PathHunter CHO-K1 CXCR7 b-arrestin cell line, stably transfected)
T1 sequence (P25106 whole entry): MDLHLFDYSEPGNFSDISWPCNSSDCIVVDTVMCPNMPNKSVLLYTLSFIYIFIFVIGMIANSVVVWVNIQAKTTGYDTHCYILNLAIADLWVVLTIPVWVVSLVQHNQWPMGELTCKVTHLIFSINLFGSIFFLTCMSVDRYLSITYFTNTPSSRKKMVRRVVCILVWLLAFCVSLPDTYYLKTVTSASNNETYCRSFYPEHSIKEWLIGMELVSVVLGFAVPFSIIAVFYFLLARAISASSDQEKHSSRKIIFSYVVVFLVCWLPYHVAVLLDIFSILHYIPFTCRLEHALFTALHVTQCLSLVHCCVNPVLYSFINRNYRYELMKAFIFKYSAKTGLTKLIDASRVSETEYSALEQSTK
T1 sequence (P32121 whole entry partner): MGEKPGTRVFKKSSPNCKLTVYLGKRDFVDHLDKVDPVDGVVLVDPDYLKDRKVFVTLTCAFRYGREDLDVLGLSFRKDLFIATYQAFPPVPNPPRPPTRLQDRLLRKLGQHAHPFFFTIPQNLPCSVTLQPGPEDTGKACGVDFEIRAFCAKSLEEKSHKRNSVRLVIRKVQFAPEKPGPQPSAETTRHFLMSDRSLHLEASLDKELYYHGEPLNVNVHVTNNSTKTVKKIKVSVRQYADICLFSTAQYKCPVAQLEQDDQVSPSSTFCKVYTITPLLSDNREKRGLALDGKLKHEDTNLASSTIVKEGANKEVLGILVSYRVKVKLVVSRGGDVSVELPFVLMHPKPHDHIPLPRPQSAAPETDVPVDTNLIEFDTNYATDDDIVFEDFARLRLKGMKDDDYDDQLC
Description: PathHunter CHO-K1 CXCR7 b-arrestin recruitment assay (CXCR7 agonistic activity). Format: cell-based. To be noted: PathHunter CHO-K1 CXCR7 b-arrestin cell line. The method in brief:
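Stable CHO-K1 line with C-terminally ProLink-tagged CXCR7 and β-arrestin 2–EA fusion; β-arrestin recruitment restores β-gal activity, read by chemiluminescence after 1 h RT detection. Cells seeded 24 h, starved in OPTIMEM 3–4 h, exposed to compounds 90 min at 37 °C in HBSS/HEPES/BSA. Geometric-mean EC50 from repeated measurements.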
For orientation: EC50 means the concentration at which the effect is half-maximal. Low readings indicate a more potent agent, high ones a less potent agent. `CC(C)(C)OC(=O)N1[C@H](CN(Cc2ccccc2C(F)(F)F)C(=O)CNc2cccc3c2CCN(CC2CC2)C3)COC1(C)C` [Example 84, (R)-4-{[[2-(2-Cyclopropylmethyl-1,2,3,4-tetrahydro-isoquinolin-5-ylamino)-acetyl]-(2-trifluoromethyl-benzyl)-amino]-methyl}-2,2-dimethyl-oxazolidine-3-carboxylic acid tert-butyl ester] came in with an EC50 of 272 nM.

`CCCCN(C)CCN(Cc1ccccc1)C(=O)CNc1cccc2c1CCN(C(=O)CC)C2` [Example 31, N-Benzyl-N-[2-(butyl-methyl-amino)-ethyl]-2-(2-propionyl-1,2,3,4-tetrahydro-isoquinolin-5-ylamino)-acetamide] had an EC50 of 13 nM.

The compound `CN(C)CCN(Cc1ncccc1Cl)C(=O)CNc1cccc2c1CCN(CC1CC1)C2` [Example 39, N-(3-Chloro-pyridin-2-ylmethyl)-2-(2-cyclopropylmethyl-1,2,3,4-tetrahydro-isoquinolin-5-ylamino)-N-(2-dimethylamino-ethyl)-acetamide] came in with an EC50 of 4 nM.

The compound `CCS(=O)(=O)N1CCc2c(cccc2NCC(=O)N(CCN(C)C)Cc2ccccc2C(F)(F)F)C1` [Example 103, N-(2-Dimethylamino-ethyl)-2-(2-ethanesulfonyl-1,2,3,4-tetrahydro-isoquinolin-5-ylamino)-N-(2-trifluoromethyl-benzyl)-acetamide] registered a 50% effective concentration (EC50) of 97 nM.

`CN(C)CCN(Cc1ncccc1Cl)C(=O)CNc1cccc2c1CN(C(=O)[C@H]1C[C@H]1F)CC2` (relative stereo) [compound 459] showed an EC50 of 59 nM.

In turn, `CN(C)CCN(Cc1ccccc1)C(=O)COc1cccc2c1CCN(C(=O)OC(C)(C)C)C2` [Example 101, 5-{[Benzyl-(2-dimethylamino-ethyl)-carbamoyl]-methoxy}-3,4-dihydro-1H-isoquinoline-2-carboxylic acid tert-butyl ester] came in with a concentration for a half-maximal effect (EC50) of 148 nM.

Take `CN(CCN(Cc1ccccc1C(F)(F)F)C(=O)CNc1cccc2c1CCN(CC1CC1)C2)C(=O)OC(C)(C)C` [Example 83, {2-[[2-(2-Cyclopropylmethyl-1,2,3,4-tetrahydro-isoquinolin-5-ylamino)-acetyl]-(2-trifluoromethyl-benzyl)-amino]-ethyl}-methyl-carbamic acid tert-butyl ester]: the concentration giving a half-maximal response (EC50) turned out to be 88 nM.

Turning to `CN(C)CCN(Cc1ccccc1C(F)(F)F)C(=O)CNc1cccc2c1CCN(CCF)C2` [Example 286, N-(2-Dimethylamino-ethyl)-2-[2-(2-fluoro-ethyl)-1,2,3,4-tetrahydro-isoquinolin-5-ylamino]-N-(2-trifluoromethyl-benzyl)-acetamide], the concentration giving a half-maximal response (EC50) is 37 nM.

`CN(C)CCN(Cc1ccccc1C(F)(F)F)C(=O)CNc1cccc2c1CCN(C(=O)C1CC1(F)F)C2` (racemic) [Example 570, rac-2-[2-(2,2-Difluoro-cyclopropanecarbonyl)-1,2,3,4-tetrahydro-isoquinolin-5-ylamino]-N-(2-dimethylamino-ethyl)-N-(2-trifluoromethyl-benzyl)-acetamide] returned a half-maximal effective concentration (EC50) of 14 nM.

`CN(C)CCN(Cc1ncccc1Cl)C(=O)/C=C/c1cccc2c1CCN(CC1CC1)C2` [Example 333, (E)-N-(3-Chloro-pyridin-2-ylmethyl)-3-(2-cyclopropylmethyl-1,2,3,4-tetrahydro-isoquinolin-5-yl)-N-(2-dimethylamino-ethyl)-acrylamide]: the concentration for a half-maximal effect (EC50) was 2 nM.

`CN(C)CCN(Cc1ncccc1Br)C(=O)CNc1cccc2c1C(C)(C)CN(CC1CC1)C2` [Example 575, N-(3-Bromo-pyridin-2-ylmethyl)-2-(2-cyclopropylmethyl-4,4-dimethyl-1,2,3,4-tetrahydro-isoquinolin-5-ylamino)-N-(2-dimethylamino-ethyl)-acetamide] yielded a concentration giving a half-maximal response (EC50) of 0.9 nM.

In the case of `CCN(Cc1ccccc1Cl)C(=O)/C=C/c1cccc2c1CCN(CC1CC1)C2` [compound 139], the midpoint of the response, the EC50, lay at 55 nM.

In the case of `CN(C)CCN(Cc1cccc(C(F)(F)F)n1)C(=O)CNc1cccc2c1CCN(CC1CC1)C2` [Example 46, 2-(2-Cyclopropylmethyl-1,2,3,4-tetrahydro-isoquinolin-5-ylamino)-N-(2-dimethylamino-ethyl)-N-(6-trifluoromethyl-pyridin-2-ylmethyl)-acetamide], the EC50 is 3 nM.

As to `CNCCN(Cc1ccccc1C(F)(F)F)C(=O)CNc1cccc2c1CCN(C(=O)C(C)(C)C)C2` [compound 390], the concentration giving a half-maximal response (EC50) turned out to be 83 nM.

In turn, `CC(C)(C)OC(=O)N1CCC(N(Cc2ccccc2C(F)(F)F)C(=O)CNc2cccc3c2CCN(CC2CC2)C3)C1` (stereo not shown) [Example 254, 3-[[2-(2-Cyclopropylmethyl-1,2,3,4-tetrahydro-isoquinolin-5-ylamino)-acetyl]-(2-trifluoromethyl-benzyl)-amino]-pyrrolidine-1-carboxylic acid tert-butyl ester] came in with an EC50 of 161 nM.

For the compound `CCOC(=O)N1CCc2c(cccc2NCC(=O)N(CCNC)Cc2ccccc2C(F)(F)F)C1` [compound 395, 5-({[(2-Methylamino-ethyl)-(2-trifluoromethyl-benzyl)-carbamoyl]-methyl}-amino)-3,4-dihydro-1H-isoquinoline-2-carboxylic acid ethyl ester], the response was half-maximal at 32 nM (EC50).

With `CN(C)CCN(Cc1ccccc1)C(=O)CNc1cccc2c1CCN(CCc1ccccc1)C2` [compound 126], the EC50 was found to be 249 nM.

Compound `CN1CCCC1CCN(CCc1ccccc1)C(=O)CNc1cccc2c1CCN(CC1CC1)C2` (racemic) [Example 49, rac-2-(2-Cyclopropylmethyl-1,2,3,4-tetrahydro-isoquinolin-5-ylamino)-N-[2-(1-methyl-pyrrolidin-2-yl)-ethyl]-N-phenethyl-acetamide] had a concentration giving a half-maximal response (EC50) of 16 nM.

Consider `CCN1CCc2cccc(NCC(=O)N(CCN(C)C)Cc3cccc(Cl)c3)c2C1` [compound 501], for which a half-maximal response (EC50) required 54 nM.

`O=C(CNc1cccc2c1CCN(CC1CC1)C2)N(CCN1CCCCCC1)Cc1ccccc1C(F)(F)F` [Example 218, N-(2-Azepan-1-yl-ethyl)-2-(2-cyclopropylmethyl-1,2,3,4-tetrahydro-isoquinolin-5-ylamino)-N-(2-trifluoromethyl-benzyl)-acetamide] gave an EC50 of 2 nM.

With `CNCCN(Cc1ccccc1C(F)(F)F)C(=O)CNc1cccc2c1CCN(CC1CC1)C2` [Example 179, 2-(2-Cyclopropylmethyl-1,2,3,4-tetrahydro-isoquinolin-5-ylamino)-N-(2-methylamino-ethyl)-N-(2-trifluoromethyl-benzyl)-acetamide], the EC50 is 3 nM.

Consider `COCCN1CCc2c(cccc2NCC(=O)N(CCC(C)(C)O)Cc2ccccc2C(F)(F)F)C1` [Example 304, N-(3-Hydroxy-3-methyl-butyl)-2-[2-(2-methoxy-ethyl)-1,2,3,4-tetrahydro-isoquinolin-5-ylamino]-N-(2-trifluoromethyl-benzyl)-acetamide], for which a half-maximal effect (EC50) was put at 311 nM.

In turn, `CNCCN(Cc1ccccc1C(F)(F)F)C(=O)CNc1cccc2c1CCN(C(=O)OC(C)C)C2` [compound 399] returned an EC50 of 64 nM.

In the case of `CNCCN(Cc1ncccc1C(F)(F)F)C(=O)CNc1cccc2c1CCN(C(=O)NC(C)C)C2` [compound 430, 5-({[(2-Methylamino-ethyl)-(3-trifluoromethyl-pyridin-2-ylmethyl)-carbamoyl]-methyl}-amino)-3,4-dihydro-1H-isoquinoline-2-carboxylic acid isopropylamide], the EC50 was 9 nM.

The compound `O=C(CNc1cccc2c1CCN(CC1CC1)C2)N(Cc1ccccc1)C1CCNC1` (racemic) [Example 178, rac-N-Benzyl-2-(2-cyclopropylmethyl-1,2,3,4-tetrahydro-isoquinolin-5-ylamino)-N-pyrrolidin-3-yl-acetamide] gave an EC50 of 25 nM.

Compound `CCN(CC)CCN(Cc1ccccc1C(F)(F)F)C(=O)CNc1cccc2c1CCN(CC1CC1)C2` [Example 60, 2-(2-Cyclopropylmethyl-1,2,3,4-tetrahydro-isoquinolin-5-ylamino)-N-(2-diethylamino-ethyl)-N-(2-trifluoromethyl-benzyl)-acetamide] had an EC50 of 1 nM.

`CN(C)CCN(Cc1ccccc1C(F)(F)F)C(=O)CNc1cccc2c1CCN(CC(F)(F)F)C2` [Example 86, N-(2-Dimethylamino-ethyl)-2-[2-(2,2,2-trifluoro-ethyl)-1,2,3,4-tetrahydro-isoquinolin-5-ylamino]-N-(2-trifluoromethyl-benzyl)-acetamide]: the EC50 is 23 nM.

Turning to `O=C(CNc1cccc2c1CCN(CC1CC1)C2)N(CCN1CCCC1)Cc1ccccc1F` [Example 44, 2-(2-Cyclopropylmethyl-1,2,3,4-tetrahydro-isoquinolin-5-ylamino)-N-(2-fluoro-benzyl)-N-(2-pyrrolidin-1-yl-ethyl)-acetamide], the EC50 was 3 nM.

The compound `CNCCN(Cc1ccccc1Br)C(=O)CNc1cccc2c1CCN(CC1CC1)C2` [compound 435, N-(2-Bromo-benzyl)-2-(2-cyclopropylmethyl-1,2,3,4-tetrahydro-isoquinolin-5-ylamino)-N-(2-methylamino-ethyl)-acetamide] yielded an EC50 of 7 nM.

For the compound `CN(C)CCN(Cc1ccnn1C)C(=O)CNc1cccc2c1CCN(CC1CC1)C2` [Example 264, 2-(2-Cyclopropylmethyl-1,2,3,4-tetrahydro-isoquinolin-5-ylamino)-N-(2-dimethylamino-ethyl)-N-(2-methyl-2H-pyrazol-3-ylmethyl)-acetamide], the 50% effective concentration (EC50) came out at 374 nM.

Compound `CCN(Cc1ccccc1Cl)C(=O)CNc1cccc2c1CCN(CC1CC1)C2` [Example 66, N-(2-Chloro-benzyl)-2-(2-cyclopropylmethyl-1,2,3,4-tetrahydro-isoquinolin-5-ylamino)-N-ethyl-acetamide] gave an EC50 of 168 nM.
